As usually defined, the melting point is the temperature, or range, at which the solid turns liquid.

Structures are written as SMILES. Counter-ions that a name gives are not always drawn.

Experimental findings from US6900220B2, “Quinazolone derivatives as alpha 1A/B adrenergic receptor antagonists” (Syntex (U.S.A.) LLC, priority 2001, dated 2005) are described below.

One data set concerns anesthetized dog. Put plainly: Dog in vivo blood and intraurethral pressure assay. As to conditions: anesthetized mongrel dogs, i.v. bolus, increasing doses. On the procedure: The following describes an in vivo assay for measuring the relative effect of test compounds on hypogastric nerve stimulation-induced increases in intraurethral pressure and phenylephrine-induced increases in diastolic blood pressure in anesthetized dog.
Mongrel dogs (10 to 20 kg) were fasted for 12 to 18 hours and anesthetized with […] (35 mg/kg, i.v.). An endotracheal tube was inserted and thereafter the lungs were mechanically ventilated with room air. The right femoral vein was isolated and cannulated with two polyethylene cannulae, one for the administration of a continuous infusion of phenobarbital sodium (5 to 10 mg/kg/hr) and the other for bolus administration of test substances. The right femoral artery was isolated and cannulated to the abdominal aorta with a fluid filled polyethylene cannula connected to an external pressure transducer for monitoring diastolic aortic pressure (DAP). The bladder was exposed via a ventral midline abdominal incision and emptied of urine through a 22 gauge needle. The bladder was cannulated through a stab incision with a water filled balloon catheter connected to an external pressure transducer for monitoring prostatic intraurethral pressure (IUP). The right hypogastric nerve (HGN) was carefully isolated and attached to a Dastre's electrode for nerve stimulation. […]
For `COc1cc2nc(N3CCN(C(=O)c4ccco4)CC3)nc(N)c2cc1OC` [prazosin], the “inhibition of hypogastric nerve (HGN) stimulation-induced increases in intraurethral pressure (IUP) relative to phenylephrine-induced increases in diastolic aortic pressure (DAP)” value is “inhibited increases in IUP and DAP in similar fashion”.

Tested on in another data set: not given
Test: not given
Conditions: not given
`COc1cc2c(cc1OC)CN(c1nc(=O)c3cc(OC)c(OC)cc3[nH]1)CC2` [Compound 105, 2-(6,7-dimethoxy-3,4-dihydro-1H-isoquinolin-2-yl)-6,7-dimethoxy-1H-quinazolin-4-one]: the melting point lay in the range of 188.6 to 190.4 °C.
For the molecule `COc1cc2[nH]c(N3CCn4c(-c5ccccc5)cnc4C3)nc(=O)c2cc1OC` [Compound 904, 6,7-dimethoxy-2-(3-phenyl-5,6-dihydro-8H-imidazo[1,2-α]pyrazin-7-yl)-1H-quinazolin-4-one], the melting point was above 300 °C.
The molecule `COc1cc2nc(N3CCc4c(cccc4S(=O)(=O)N4CCN(C)CC4)C3)[nH]c(=O)c2cc1OC` [Compound 401, 6,7-dimethoxy-2-[5-(4-methyl-piperazine-1-sulfonyl)-3,4-dihydro-1H-isoquinolin-2-yl]-3H-quinazolin-4-one] gave a melting point of 230 to 237 °C.
The same measure, in the same setting: for `COc1cc2nc(N3CCc4c(cccc4-c4cnccc4N)C3)[nH]c(=O)c2cc1OC` (as salt: hydrochloric acid salt) [Compound 902, 2-[5-(4-amino-pyridin-3-yl)-3,4-dihydro-1H-isoquinolin-2-yl]-6,7-dimethoxy-3H-quinazol-4-one] the value was above 300 °C; for `COc1cc2nc(N3CCc4c(cccc4C(=N)N4CCOCC4)C3)[nH]c(=O)c2cc1OC` (as salt: hydrochloric acid salt) [Compound 901, 2-[5-(imino-morpholin-4-yl-methyl)-3,4-dihydro-1H-isoquinolin-2-yl]-6,7-dimethoxy-3H-quinazolin-4-one], 249 to 251 °C.
`COc1cc2nc(N3CCn4c(cnc4NC4CCCCC4)C3)[nH]c(=O)c2cc1OC` [Compound 301, 2-(3-cyclohexylamino-5,6-dihydro-8H-imidazo[1,5-a]pyrazin-7-yl)-6,7-dimethoxy-1H-quinazolin-4-one]: the melting point was in the range of 248 to 249.4 °C.
`COc1cc2nc(N3CCc4c(ncnc4N4CCOCC4)C3)[nH]c(=O)c2cc1OC` [Compound 201, 6,7-dimethoxy-2-(4-morpholin-4-yl-5,8-dihydro-6H-pyrido[3,4-d]pyrimidin-7-yl)-3H-quinazolin-4-one] yielded a melting point of 287.7 to 290.4 °C.
Still for that read-out and setting: the same measure for `COc1cc2nc(N3CCc4c(CN5CCOCC5)cccc4C3)[nH]c(=O)c2cc1OC` (as salt: hydrochloric acid salt) [Compound 701, 6,7-Dimethoxy-2-(5-morpholin-4-ylmethyl-3,4-dihydro-1H-isoquinolin-2-yl)-3H-quinazolin-4-one]: 227.9 to 229.6 °C.
